Tested on: G. duodenalis BRIS/91/HEPU/1279
Assay: Primary Giardia screen at 10 µM (live-cell imaging, automated counting)
Format: cell-based, Giardia duodenalis
Conditions: 48 h, first singlicate assay
Description: Each compound was assessed in singlicate, at a final concentration of 10 μM (0.4 μL of a 5 mM stock; diluted to a final volume of 200 μL in culture medium; 0.2% DMSO). […] Plates were incubated in sealed chambers filled with 3% O2, 5% CO2 in N2 and growth was assessed at 24 and 48 h using live cell imaging and automated counting as previously described. Growth inhibition was calculated by subtracting media only background counts and determining percentage growth relative to vehicle (0.2% DMSO) controls. The reliability of these assays was assessed by calculating Z’ factors for each plate as previously described.

Going from `CS(=O)(=O)N1CCCc2cc(-c3csc(N)n3)ccc21` [SN00777047] to `CCC1c2ccsc2CCN1C(=O)c1cc(-c2csc(C)n2)c[nH]1` (stereo not shown) [SN00778239], the “% Inhibition n=1 48h” value falls from 7.2% to 3.8%.

Compared with `COc1ccc(C(=O)N2c3ccccc3NC(=O)CC2C)cc1OC` (stereo not shown) [SN00777269], `O=C(c1ccccc1)N1CCN(C(=O)c2ccc3noc(-c4ccccc4)c3c2)CC1` [SN00777400] is higher in “% Inhibition n=1 48h” value: 0.0% for the first, 15.8% for the second.

Compared with `CC(=O)Nc1ccc(C(=O)OCc2cc(-c3cccs3)on2)s1` [SN00777515], `Cc1cc(C2CCCN2Cc2cc(-c3ccco3)on2)on1` (stereo not shown) [SN00777724] is higher in “% Inhibition n=1 48h” value: 14.0% for the first, 35.3% for the second.

Compared with `Cc1nnc(NC(=O)c2ccc3c(=O)n4c(nc3c2)CCCCCC4)s1` [SN00777547], `Cn1nc2c(c1NC(=O)c1cccc(NC(=O)C(C)(C)C)c1)CCC2` [SN00777576] is lower in “% Inhibition n=1 48h” value: 37.7% for the first, 0.0% for the second.

Going from `COC(=O)c1cc(C(=O)Nc2c3c(nn2C)CCC3)cc([N+](=O)[O-])c1` [SN00777586] to `O=C(CN1C(=O)CC2(CCCCC2)C1=O)Nc1ccc([N+](=O)[O-])cc1` [SN00777618], the “% Inhibition n=1 48h” value rises from 12.1% to 47.2%.

Going from `O=C(c1cc(C2CC2)nc2ccccc12)N1CC2CCC1C2` (stereo not shown) [SN00777604] to `CCC(=O)N1CCCC1C1CCCN1Cc1cn2c(C)cccc2n1` (stereo not shown) [SN00777763], the “% Inhibition n=1 48h” value falls from 18.4% to 16.6%.

Going from `O=c1n(Cc2ccc(F)cc2)nnn1-c1ccccc1` [SN00777772] to `O=C1C(=O)N(Cc2coc(-c3ccc(Cl)cc3)n2)C(=O)N1Cc1ccccc1` [SN00777999], the “% Inhibition n=1 48h” value falls from 48.5% to 18.6%.

First: O=C(NCCSc1ccc(Cl)cc1)c1cc(S(=O)(=O)N2CCOCC2)c[nH]1 [SN00777799]
Second: Cc1ccc(S(=O)(=O)N2CCCN(C(=O)c3c[nH]nc3-c3ccc(F)cc3)CC2)cc1 [SN00778123]
The “% Inhibition n=1 48h” value of the first is lower: 7.9% for the first, 40.4% for the second.

Going from `Cc1cccc(OCC(=O)N2CCN(Cc3nnsc3Cl)CC2)c1C` [SN00777844] to `CSc1ccc(-c2csc(CN3CCN(C(C)=O)CC3)n2)cc1` [SN00778360], the “% Inhibition n=1 48h” value falls from 35.2% to 12.1%.

Going from `CCc1nc(CN2CCCN(C(=O)C3CCC3)CC2)cs1` [SN00777931] to `CCc1noc(C)c1C(=O)N1CCCN(Cc2csc(C)n2)CC1` [SN00778114], the “% Inhibition n=1 48h” value rises from 3.9% to 29.4%.

Compared with `Cc1onc(-c2ccccc2)c1-c1nnc(CN2CCCN(CC(=O)NC(C)(C)C)CC2)o1` [SN00777957], `CN(C)C(=O)CN1CCCN(Cc2ncc(C(C)(C)C)o2)CC1` [SN00778763] is lower in “% Inhibition n=1 48h” value: 2.0% for the first, 1.9% for the second.

Going from `CCN1C(=O)C(=O)N(Cc2coc(-c3ccc(C)cc3)n2)C1=O` [SN00778011] to `Cc1ccc(-c2nc(C)sc2CC(=O)N2CCN(Cc3nc(N)c4ccccc4n3)CC2)cc1` [SN00778718], the “% Inhibition n=1 48h” value falls from 28.7% to 9.0%.

Compared with `CCCNC(=O)CN1CCN(c2nc3ccccn3c2[N+](=O)[O-])CC1` [SN00778045], `c1cnc(N2CCCN(c3nc4ccccc4o3)CC2)nc1` [SN00778442] is higher in “% Inhibition n=1 48h” value: 31.4% for the first, 32.5% for the second.

First: CC(=O)N1CCCN(C(=O)c2cnn(C(C)(C)C)c2C)CC1 [SN00778131]
Second: CC(=O)N1CCCN(C(=O)c2cc(C3CC3)[nH]n2)CC1 [SN00778148]
The “% Inhibition n=1 48h” value of the first is lower: 0.0% for the first, 1.1% for the second.

Going from `O=C(CN1C(=O)NC2(CCc3ccccc32)C1=O)N1CCCC(c2nnc3ccccn23)C1` (stereo not shown) [SN00778393] to `Cc1nc(-c2ccccc2)c(C(=O)N2CCCN(S(=O)(=O)c3ccc(F)cc3)CC2)s1` [SN00778504], the “% Inhibition n=1 48h” value rises from 0.0% to 9.7%.

First: CCn1cc(CN2CCCN(C(=O)c3cc(C4CC4)on3)CC2)cn1 [SN00778709]
Second: c1ccc(-c2cc(CN3CCOC(Cn4cncn4)C3)on2)cc1 (stereo not shown) [SN00778747]
The “% Inhibition n=1 48h” value of the first is lower: 0.0% for the first, 6.8% for the second.

`Cc1nc(CN2CCCNCC2)oc1C` [SN00778765] and `Cc1ccc(S(=O)(=O)C2(C(=O)Nc3cn[nH]c3)CCC2)cc1` [SN00778835] are the same in “% Inhibition n=1 48h” value: 0.0% for the first, 0.0% for the second.
